Data set [1] is described as follows: Cytotoxicity assay, HEK293. It is filed as cell-based. Particulars: human; HEK293 cells; mean (n = 2); read-out: Cytotoxicity (IC50), concentration of compound at 50% cytotoxicity. Here is the method: Cytotoxicity assays were conducted using reported protocols (see Supplementary File). […]
HEK293 cells were counted manually in a Neubauer hemocytometer and plated at a density of 5,000 cells/well into each well of the 384-well plates containing the 25x (2 µL) concentrated compounds [26,27]. The medium used was Dulbecco's modified Eagle’s medium (DMEM), supplemented with 10% fetal bovine serum (FBS). Cells were incubated together with the compounds for 20 h at 37 °C, 5% CO2.
To measure cytotoxicity, 5 µL (equals 100 µM final) of resazurin was added to each well after incubation and incubated for further 3 h at 37 °C with 5% CO2. After the final incubation, fluorescence intensity […]
reader. CC50 values (concentration at 50% cytotoxicity) were calculated by normalizing the fluorescence readout, with 74 µg/mL tamoxifen as negative control (0%) and normal cell growth as positive control (100%). The concentration-dependent percentage cytotoxicity was fitted to a dose–response function (using Pipeline Pilot) and CC50 values were determined. […]

Another data set relates to human red blood cells. Put plainly: Hemolytic assay. To be noted: mean (n = 2). It is filed as cell-based. Here is the method: Hemolysis assays were conducted using reported protocols (see Supplementary File). […]
Human whole blood was washed three times with three volumes of 0.9% NaCl and then resuspended in the same solution to a concentration of 0.5 x 10^8 cells/mL, as determined by the manual cell count in a Neubauer hemocytometer. The washed cells were then added to the 384-well compound-containing plates for a final volume of 50 µL. After a 10 min shake on a plate shaker, the plates were then incubated for 1 h at 37 °C. After incubation, the plates were centrifuged at 1,000g for 10 min to pellet cells and debris; 25 µL of the supernatant was then transferred to a polystyrene 384-well assay plate. Hemolysis was determined by measuring the supernatant absorbance at […] (OD405). The absorbance was measured using a Tecan M1000 Pro monochromator plate reader. HC10 and HC50 (concentration at 10% and 50% hemolysis, respectively) were calculated by curve fitting the inhibition values vs. log (concentration) using a sigmoidal dose–response function with variable fitting values for the top, bottom, and slope. […]

For another data set, the system named is S. aureus ATCC 25923. Put plainly: MIC, broth dilution, S. aureus. Type of data set: cell-based. To be noted: Staphylococcus aureus, ATCC25923, mean (n = 3). Here is the method: (§1) The susceptibility of bacterial strains S. aureus (ATCC 25923), E. coli (ATCC 25922), and P. aeruginosa (ATCC 27853 or PAO1) to antibiotics and compounds was determined using reported protocols. Additional antimicrobial evaluation against MRSA (ATCC 43300), Klebsiella pneumoniae (ATCC 700603), A. baumannii (ATCC 19606), Candida albicans (ATCC 90028), and Cryptococcus neoformans (ATCC 208821) was undertaken at the Community for Open Antimicrobial Drug Discovery at The University of Queensland (Australia) according to their standard protocols as reported previously. […]
(§2) 2.3. Antimicrobial Assays
The susceptibility of bacterial strains S. aureus (ATCC 25923), E. coli (ATCC 25922), and P. aeruginosa (ATCC 27853 or PAO1) to antibiotics and compounds was determined in microplates using the standard broth dilution method in accordance with the recommendations of the Comité de l’AntibioGramme de la Société Française de Microbiologie (CA-SFM). Briefly, the minimal inhibitory concentrations (MICs) were determined with an inoculum of 10^5 CFU in 200 µL of Mueller–Hinton broth (MHB) containing two-fold serial dilutions of each drug. The MIC was defined as the lowest […]
determine all MICs, the measurements were independently repeated in triplicate. Additional antimicrobial evaluation against MRSA (ATCC 43300), Klebsiella pneumoniae (ATCC 700603), A. baumannii (ATCC 19606), Candida albicans (ATCC 90028), and Cryptococcus neoformans (ATCC 208821) was undertaken at the Community for Open Antimicrobial Drug Discovery at The University of Queensland (Australia) according to their standard protocols as reported previously. […]
(§3) For C. neoformans, resazurin was added at 0.006% final concentration to each well and incubated for a further 3 h before MICs were determined by measuring […]
(§4) Colistin and vancomycin were used as positive bacterial inhibitor standards for Gram-negative and Gram-positive bacteria, respectively. Fluconazole was used as a positive fungal inhibitor standard for C. albicans and C. neoformans. The antibiotics were provided in […], with 3 above and 3 below its MIC value, and plated into the first 8 wells of column 23 of the 384-well NBS plates. The quality control (QC) of the assays was determined by the antimicrobial controls and the Z'-factor (using positive and negative controls). Each plate was deemed to fulfil the quality criteria (pass QC) if the Z'- […]
(§5) inhibition at their highest concentration, and no growth inhibition at their lowest concentration.
(§6) 2.4. Determination of the MICs of Antibiotics in the Presence of Synergizing Compounds
In general terms: Dilution methods test growth across graded concentrations, often in twofold steps.

Data set [2] deals with K. pneumoniae ATCC 700603. Put plainly: MIC, CO-ADD broth microdilution, K. pneumoniae. Type of data set: cell-based, Klebsiella pneumoniae. Particulars: for MIC: Klebsiella pneumoniae, ATCC700603, mean (n = 2). Here is the method: as §1, §2
(§7) The susceptibility of bacterial strains S. aureus (ATCC 25923), E. coli (ATCC 25922), and P. […]
(§8) baumannii (ATCC 19606), Candida albicans (ATCC 90028), and Cryptococcus neoformans (ATCC 208821) was undertaken at the Community for Open Antimicrobial Drug Discovery at The University of Queensland (Australia) according to their standard protocols as reported previously. For antimicrobial assays, the tested strains were cultured in either Luria broth (LB) (In Vitro Technologies, USB75852), nutrient broth (NB) (Becton Dickson, 234000), or MHB at 37 °C overnight. A sample of culture was then diluted 40-fold in fresh MHB and incubated at 37 °C for 1.5−2 h. The compounds were serially diluted 2-fold across the wells of 96-well plates (Corning 3641, non-binding surface), with compound concentrations ranging from 0.015 to 64 µg/ mL, and plated in duplicate. The resultant mid-log phase cultures were diluted to the final concentration of 1 × 10^6 CFU/mL; then, 50 µL was added to each well of the compound-containing plates, giving a final compound concentration range of 0.008 to 32 µg/mL and a cell density of 5 × 10^5 CFU/mL. All plates were then covered and incubated at 37 °C for 18 h. Resazurin was added at 0.001% final concentration to each well and incubated for 2 h before MICs […]
as §3, §4, §5, §6

The test system of a further data set is MRSA ATCC 43300. Put plainly: MIC, CO-ADD broth microdilution, MRSA. Particulars: Staphylococcus aureus; MRSA ATCC 43300; mean (n = 2); read-out: MIC MRSA. Type of data set: cell-based, methicillin-resistant S. aureus. On the procedure:
as §1, §2, §7, §8, §3, §4, §5, §6

SMILES strings stand for the structures. A value given as a limit tells only on which side of the number the result lay.

On to `C=C[C@]1(C)C[C@@H](OC(=O)CSCCN(CC)CC)[C@]2(C)[C@H](C)CC[C@]3(CCC(=O)[C@H]32)[C@@H](C)[C@@H]1O` [Compound 2, Tiamulin, reference compound], for which the IC50 at 20 h in data set [1] was greater than 64.8 µM. Moreover, the “Hemolysis (HC10), concentration of compound at 10% hemolytic activity” value (“Hemolysis (HC10) … at 10% hemolytic activity” for short) in the data set with human red blood cells is greater than 64.8 µM. Besides, the MIC is 3.12 µM in the data set on S. aureus ATCC 25923, greater than 64.8 µM in data set [2] and no more than 0.51 µM in the data set with MRSA ATCC 43300. The “MIC K.p.” value in data set [2] (mean (n = 2)) is “no activity”.
For `C=C[C@]1(C)C[C@@H](OC(=O)CNCCCNCCCCNCCCNCC(=O)O[C@@H]2C[C@@](C)(C=C)[C@@H](O)[C@H](C)[C@]34CCC(=O)[C@H]3[C@@]2(C)[C@H](C)CC4)[C@]2(C)[C@H](C)CC[C@]3(CCC(=O)[C@H]32)[C@@H](C)[C@@H]1O.O=C(O)C(F)(F)F.O=C(O)C(F)(F)F.O=C(O)C(F)(F)F.O=C(O)C(F)(F)F` [Compound 9a, N^1,N^1′-(Butane-1,4-diyl)bis(N^3-(2-(((3aR,4R,5R,7S,8S,9R,9aS,12R)-8-hydroxy-4,7,9,12-tetramethyl-3-oxo-7-vinyldecahydro-4,9a-propanocyclopenta [8]annulen-5-yl)oxy)-2-oxoethyl)propane-1,3-diaminium) 2,2,2-trifluoroacetate], the IC50 at 20 h in data set [1] was greater than 23.2 µM. In addition, the “Hemolysis (HC10) … at 10% hemolytic activity” value in the data set with human red blood cells is greater than 23.2 µM. In addition, the MIC with S. aureus ATCC 25923 is 18.1 µM; in data set [2] it was greater than 23.2 µM; in the data set with MRSA ATCC 43300 it was 23.2 µM.
`C=C[C@]1(C)C[C@@H](OC(=O)CNCCCNCCCCCCNCCCNCC(=O)O[C@@H]2C[C@@](C)(C=C)[C@@H](O)[C@H](C)[C@]34CCC(=O)[C@H]3[C@@]2(C)[C@H](C)CC4)[C@]2(C)[C@H](C)CC[C@]3(CCC(=O)[C@H]32)[C@@H](C)[C@@H]1O.O=C(O)C(F)(F)F.O=C(O)C(F)(F)F.O=C(O)C(F)(F)F.O=C(O)C(F)(F)F` [Compound 9b, N^1,N^1′-(Hexane-1,6-diyl)bis(N^3-(2-(((3aR,4R,5R,7S,8S,9R,9aS,12R)-8-hydroxy-4,7,9,12-tetramethyl-3-oxo-7-vinyldecahydro-4,9a-propanocyclopenta [8]annulen-5-yl)oxy)-2-oxoethyl)propane-1,3-diaminium) 2,2,2-trifluoroacetate]: the IC50 at 20 h in data set [1] was greater than 22.7 µM. In the data set with human red blood cells, the “Hemolysis (HC10) … at 10% hemolytic activity” value was greater than 22.7 µM. Besides, the MIC in the data set on S. aureus ATCC 25923 is 17.8 µM; in data set [2] it was greater than 22.7 µM; with MRSA ATCC 43300 it was no more than 0.18 µM.
With `C=C[C@]1(C)C[C@@H](OC(=O)CNCCCNCCCCCCCNCCCNCC(=O)O[C@@H]2C[C@@](C)(C=C)[C@@H](O)[C@H](C)[C@]34CCC(=O)[C@H]3[C@@]2(C)[C@H](C)CC4)[C@]2(C)[C@H](C)CC[C@]3(CCC(=O)[C@H]32)[C@@H](C)[C@@H]1O.O=C(O)C(F)(F)F.O=C(O)C(F)(F)F.O=C(O)C(F)(F)F.O=C(O)C(F)(F)F` [Compound 9c, N^1,N^1′-(Heptane-1,7-diyl)bis(N^3-(2-(((3aR,4R,5R,7S,8S,9R,9aS,12R)-8-hydroxy-4,7,9,12-tetramethyl-3-oxo-7-vinyldecahydro-4,9a-propanocyclopenta [8]annulen-5-yl)oxy)-2-oxoethyl)propane-1,3-diaminium) 2,2,2-trifluoroacetate], in data set [1], the IC50 at 20 h is greater than 22.5 µM. In addition, the “Hemolysis (HC10) … at 10% hemolytic activity” value with human red blood cells was greater than 22.5 µM. In addition, the figures for the MIC (with S. aureus ATCC 25923; in data set [2]; in the data set on MRSA ATCC 43300) were 17.6 µM, greater than 22.5 µM and no more than 0.18 µM, respectively.
As to `C=C[C@]1(C)C[C@@H](OC(=O)CNCCCNCCCCCCCCNCCCNCC(=O)O[C@@H]2C[C@@](C)(C=C)[C@@H](O)[C@H](C)[C@]34CCC(=O)[C@H]3[C@@]2(C)[C@H](C)CC4)[C@]2(C)[C@H](C)CC[C@]3(CCC(=O)[C@H]32)[C@@H](C)[C@@H]1O.O=C(O)C(F)(F)F.O=C(O)C(F)(F)F.O=C(O)C(F)(F)F.O=C(O)C(F)(F)F` [Compound 9d, N^1,N^1′-(Octane-1,8-diyl)bis(N^3-(2-(((3aR,4R,5R,7S,8S,9R,9aS,12R)-8-hydroxy-4,7,9,12-tetramethyl-3-oxo-7-vinyldecahydro-4,9a-propanocyclopenta [8]annulen-5-yl)oxy)-2-oxoethyl)propane-1,3-diaminium) 2,2,2-trifluoroacetate], in data set [1], the IC50 at 20 h is greater than 22.3 µM. Moreover, the “Hemolysis (HC10) … at 10% hemolytic activity” value in the data set with human red blood cells is greater than 22.3 µM. Also, the values for the MIC (in the data set on S. aureus ATCC 25923; in data set [2]; in the data set with MRSA ATCC 43300) were 34.8 µM, greater than 22.3 µM and 5.57 µM, respectively.
As to `C=C[C@]1(C)C[C@@H](OC(=O)CNCCCNCCCCCCCCCCNCCCNCC(=O)O[C@@H]2C[C@@](C)(C=C)[C@@H](O)[C@H](C)[C@]34CCC(=O)[C@H]3[C@@]2(C)[C@H](C)CC4)[C@]2(C)[C@H](C)CC[C@]3(CCC(=O)[C@H]32)[C@@H](C)[C@@H]1O.O=C(O)C(F)(F)F.O=C(O)C(F)(F)F.O=C(O)C(F)(F)F.O=C(O)C(F)(F)F` [Compound 9e, N^1,N^1′-(Decane-1,10-diyl)bis(N^3-(2-(((3aR,4R,5R,7S,8S,9R,9aS,12R)-8-hydroxy-4,7,9,12-tetramethyl-3-oxo-7-vinyldecahydro-4,9a-propanocyclopenta [8]annulen-5-yl)oxy)-2-oxoethyl)propane-1,3-diaminium) 2,2,2-trifluoroacetate], the IC50 at 20 h in data set [1] is greater than 21.9 µM. In the data set with human red blood cells, the “Hemolysis (HC10) … at 10% hemolytic activity” value was greater than 21.9 µM. Further, the MIC in the data set with S. aureus ATCC 25923 was 4.27 µM; in data set [2], greater than 21.9 µM; in the data set with MRSA ATCC 43300, no more than 0.17 µM.

A word on the MIC: it is the least concentration at which growth counts as inhibited.

The values are drawn from PMC10673369, “Preliminary SAR of Novel Pleuromutilin–Polyamine Conjugates” (Microorganisms, 2023).
